The record followed here is PMC12822132, “Targeting mechanosensitive cannabinoid receptor 1 with isoflavone prodrugs attenuates atherosclerotic endothelial dysfunction” (Journal of Biomedical Science, 2026).

For this assay, the target named is T1, cannabinoid receptor 1 (CB1) (Homo sapiens, UniProt P21554).
T1 construct: gene CNR1; human recombinant receptor expressed in Chem-1 cells
As to the kind of experiment: radioligand displacement binding assay. In kind it is cell-based. On the technique in general: In a radioligand displacement assay an active substance lowers the binding of a labelled ligand.

T1 sequence (P21554 whole entry): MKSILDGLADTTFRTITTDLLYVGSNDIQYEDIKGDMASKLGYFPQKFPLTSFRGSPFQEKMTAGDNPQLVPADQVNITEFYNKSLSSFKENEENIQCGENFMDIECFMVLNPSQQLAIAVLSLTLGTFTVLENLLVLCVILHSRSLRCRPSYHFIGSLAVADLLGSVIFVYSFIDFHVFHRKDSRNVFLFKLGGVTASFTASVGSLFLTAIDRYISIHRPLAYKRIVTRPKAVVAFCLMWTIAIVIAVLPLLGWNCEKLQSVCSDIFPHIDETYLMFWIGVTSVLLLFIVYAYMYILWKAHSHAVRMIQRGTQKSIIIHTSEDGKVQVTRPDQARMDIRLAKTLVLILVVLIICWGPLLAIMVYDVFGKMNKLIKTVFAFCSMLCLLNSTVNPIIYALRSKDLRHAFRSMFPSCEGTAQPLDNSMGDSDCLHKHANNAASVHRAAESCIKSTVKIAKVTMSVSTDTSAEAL

Consider `O=c1c(-c2ccc(O)cc2)coc2cc(O)cc(O)c12` [genistein], for which the Ki (commonly the dissociation constant of the complex between target and ligand, obtained from inhibition or displacement) was 140 nM.
